Test results taken from patent US8541235B2, “Modified reconstituted basement membrane composition for assay system” (Corning Incorporated, priority 2003, dated 2013).
Read-outs that look alike come from different tables or passages of the source.

How the values were obtained:
[1] = system: HUVEC tube formation; assay: Endothelial cell tube formation assay, stimulator studies on modified matrix; format: cell-based, human; settings: modified matrix (inventive), total tube length, n=4
Description: (§1) With reference to FIG. 1, angiogenesis stimulators can be evaluated for their ability to enhance HUVEC tube formation using the compositions and cell culturing systems of the present invention. […] The bottom surface of the wells are shown as coated with the modified matrix composition of the present invention. On day 1, a potential angiogenesis stimulator is added to the coated surface, along with endothelial cells in cell medium. […] In inhibitor studies, the potential inhibitor is included in a well, in addition to at least one known stimulator and the endothelial cells in cell medium. After an appropriate incubation period, typically 24 hours at 37° C./5% CO2 (day 2), images of the wells are acquired, and tube length is quantified as a measure of cell tube formation.
Known stimulators were chosen to evaluate the performance of an inventive basement membrane composition vs. a prior basement membrane composition. The chosen stimulators were bFGF and spinosine-1-phosphate (S1P). […]
At the end of each assay, assay medium was removed and plates were washed once with HBSS. […] Total tube length of each well was measured using a revised (from previous) MetaMorph® Journal. Excel data was imported and analyzed using BD Gentest MPM/ADMET Software Program from BD Biosciences Discovery Labware. […]

[2] = system: HUVEC tube formation; assay: Endothelial cell tube formation assay, inhibitor studies on modified matrix (tube formation induced by bFGF or S1P); format: cell-based, human; settings: for Effect on S1P induced HUVEC tube formation: S1P 1 μM; for IC50: Homo sapiens, HUVEC
Description: as §1
Known stimulators were chosen to evaluate the performance of an inventive basement membrane composition vs. a prior basement membrane composition. The chosen stimulators were bFGF and spinosine-1-phosphate (S1P). Coated plates prepared as described above in Example 2 were thawed at about 4° C. for a period of about 4 to 5 hours. The components of the composition were then allowed to polymerize at 37° C., 5% CO2 for approximately 30 minutes immediately before assay setup. For stimulator studies, HUVEC (P3-P5) were harvested at about 70% cell confluence. About 50 μl of cells at 4×10^5/ml in 0.1% FBS/EBM-2 medium supplemented with or without the angiogenesis stimulators were seeded onto 96-well plates containing the pre-solidified (i.e., polymerized) modified reconstituted basement membrane composition (inventive) or a standard Matrigel® matrix (BD Growth Factor Reduced Matrigel® Matrix). The assembled assays were allowed to incubate in a 37° C. incubator with 5% CO2 for approximately 16 to 18 hours. Compounds were dissolved in DMF or water according to manufacturer's instructions.
At the end of each assay, assay medium was removed and plates were washed once with HBSS. 50 μl Calcein AM at 8 μg/ml in HBSS was added to each well and plates were incubated in a 37° C./5% CO2 incubator for 35 minutes followed by washing once in HBSS. Images were acquired with a 2× objective lens on an automated Gen-1 Cell-based Screening System (Universal Imaging Corporation™). Total tube length of each well was measured using a revised (from previous) MetaMorph® Journal. Excel data was imported and analyzed using BD Gentest MPM/ADMET Software Program from BD Biosciences Discovery Labware.
Inhibitor studies were performed as generally described in Example 4, except that for these studies, an inhibitor was included in the assay, in addition to a known stimulator. Data was obtained on the modified matrix (inventive). […] Stimulators, bFGF or S1P, were added to HUVECs at 20 ng/ml and 1 μM, respectively. Suramin of indicated concentrations was added to HUVEC in bFGF or S1P prior to adding the mixtures to each well. Each data point represents the mean+/−standard deviation (n=4).
With reference now to FIG. 5, the effects of inhibitors (SU5402 and Suramin) on HUVEC tube formation induced by stimulators (bFGF and S1P) is shown. Data was obtained on the modified matrix (inventive). Stimulators, bFGF or S1P, were added to HUVECs in EBM-2 containing 0.1% FBS at a final concentration of 20 ng/ml and 1 μM, respectively. Suramin at 15 μM (in medium) or SU5402 at 25 μM (in 0.1% DMF) were added to HUVECs in 0.1% FBS, or bFGF, or S1P, prior to adding the mixtures to the wells. […] Each bar represents the mean+/−standard deviation (n=4).

Molecule: CCCCCCCCCCCCC/C=C/[C@@H](O)[C@@H](N)COP(=O)(O)O [S1P, sphinosine-1-phosphate]
- EC50 ([1]; read-out: EC50 in inducing HUVEC tube formation): 0.319 µM

Molecule: bFGF: known angiogenesis stimulator; fibroblast growth factor (basic FGF)
- EC50 in inducing HUVEC tube formation [1]: 1.5 ng/mL

Molecule: Cc1c[nH]c(/C=C2\C(=O)Nc3ccccc32)c1CCC(=O)O [SU5402]
- Effect on S1P induced HUVEC tube formation ([2]; SU5402 at 25 μM (in 0.1% DMF), modified matrix, FIG. 5): partially inhibited
- Effect on HUVEC tube formation stimulated by bFGF ([2]; SU5402 at 25 μM (in 0.1% DMF), bFGF 20 ng/ml, modified matrix, FIG. 5): completely inhibited

Molecule: Cc1ccc(C(=O)Nc2ccc(S(=O)(=O)O)c3cc(S(=O)(=O)O)cc(S(=O)(=O)O)c23)cc1NC(=O)c1cccc(NC(=O)Nc2cccc(C(=O)Nc3cc(C(=O)Nc4ccc(S(=O)(=O)O)c5cc(S(=O)(=O)O)cc(S(=O)(=O)O)c45)ccc3C)c2)c1 [Suramin]
- IC50 ([2]; read-out: IC50 of inhibition of tube formation stimulated by S1P): 10.6 µM
- IC50 ([2]; read-out: IC50 of inhibition of tube formation stimulated by bFGF): 7.3 µM
- Effect on S1P induced HUVEC tube formation ([2]; Suramin at 15 μM (in medium), modified matrix, FIG. 5): inhibited
- Effect on bFGF induced HUVEC tube formation ([2]; Suramin at 15 μM (in medium), bFGF 20 ng/ml, modified matrix, FIG. 5): inhibited
